Source: ChEMBL document CHEMBL1201862, “PubChem BioAssay data set” (2004)
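Compound exposure: 48 hours, 5 concentrations, 96-well plates. The concentration for 50% growth inhibition is given as GI50.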 The source made the active and inactive calls. Cut-off read from the data, not from the text of the source: active = GI50 up to about 1.1 µM and inactive = higher.

What was measured:
Assay in all cases: NCI tumour cell line growth inhibition, 48 h
[1] = system: 786-0
[2] = system: A549
[3] = system: CAKI-1
[4] = system: HCT-116
[5] = system: HCT-15
[6] = system: HOP-62
[7] = system: HOP-92
[8] = system: IGROV-1
[9] = system: LOX IMVI
[10] = system: M14
[11] = system: NCI-H522
[12] = system: OVCAR-3
[13] = system: OVCAR-5
[14] = system: OVCAR-8
[15] = system: SF-268
[16] = system: SK-MEL-28
[17] = system: SK-MEL-2
[18] = system: SN12C
[19] = system: SNB-19
[20] = system: SR

Row | SMILES | GI50 [1] | GI50 [2] | GI50 [3] | GI50 [4] | GI50 [5] [µM] | GI50 [6] | GI50 [7] | GI50 [8] | GI50 [9] | GI50 [10] | GI50 [11] | GI50 [12] | GI50 [13] | GI50 [14] | GI50 [15] | GI50 [16] | GI50 [17] | GI50 [18] | GI50 [19] | GI50 [20]
1 | CS(=O)(=O)OCCN(CCOS(C)(=O)=O)c1ccc(C=O)cc1 | 0.365 µM (active) | 2.89 µM (inactive) | 0.427 µM (active) | 31.4 µM (inactive) | 9.84 | 1.43 µM (inactive) | 12.5 µM (inactive) | 12.8 µM (inactive) | 5.08 µM (inactive) | 4.55 µM (inactive) | 0.195 µM (active) | 5.12 µM (inactive) | 3.5 µM (inactive) | 7.35 µM (inactive) | 2.95 µM (inactive) | 17.1 µM (inactive) | 17.1 µM (inactive) | 3.68 µM (inactive) | 4.22 µM (inactive) | 0.236 µM (active)
2 | CC(=O)OCC1OC(n2cnc3nc(Br)[nH]c(=O)c32)C(OC(C)=O)C1OC(C)=O (stereo not given) | > 100 µM (inactive) | > 100 µM (inactive) | > 100 µM (inactive) | > 100 µM (inactive) | > 100 | > 100 µM (inactive) | > 100 µM (inactive) | > 100 µM (inactive) | > 100 µM (inactive) | > 100 µM (inactive) | > 100 µM (inactive) | > 100 µM (inactive) | > 100 µM (inactive) | > 100 µM (inactive) | > 100 µM (inactive) | – | > 100 µM (inactive) | > 100 µM (inactive) | > 100 µM (inactive) | > 100 µM (inactive)
3 | CC1(C)COC(c2cccc(C(=O)c3ccccc3)c2)=N1 | 61.1 µM (inactive) | 55.2 µM (inactive) | 46.7 µM (inactive) | > 100 µM (inactive) | 36.2 | > 100 µM (inactive) | 25.9 µM (inactive) | > 100 µM (inactive) | 38.6 µM (inactive) | – | 16.8 µM (inactive) | 24.7 µM (inactive) | > 100 µM (inactive) | 48.5 µM (inactive) | 90.4 µM (inactive) | 42.8 µM (inactive) | > 100 µM (inactive) | 32 µM (inactive) | 51.4 µM (inactive) | 32.3 µM (inactive)
4 | c1cc2nsnc2c2c[nH]cc12 | > 100 µM (inactive) | 64.9 µM (inactive) | > 100 µM (inactive) | > 100 µM (inactive) | 99.5 | > 100 µM (inactive) | 28.1 µM (inactive) | 43.7 µM (inactive) | > 100 µM (inactive) | – | 56.5 µM (inactive) | > 100 µM (inactive) | 47.4 µM (inactive) | 34.2 µM (inactive) | > 100 µM (inactive) | > 100 µM (inactive) | > 100 µM (inactive) | > 100 µM (inactive) | – | 96.6 µM (inactive)
5 | COC(=O)C(=O)C(C(=O)C(=O)Nc1ccc(Cl)cc1C)c1nc2ccc(C(=O)c3ccccc3)cc2nc1O (stereo not given) | > 100 µM (inactive) | > 100 µM (inactive) | 68.4 µM (inactive) | > 100 µM (inactive) | > 100 | > 100 µM (inactive) | 49.8 µM (inactive) | > 100 µM (inactive) | > 100 µM (inactive) | > 100 µM (inactive) | 37 µM (inactive) | > 100 µM (inactive) | 83 µM (inactive) | > 100 µM (inactive) | > 100 µM (inactive) | – | > 100 µM (inactive) | > 100 µM (inactive) | > 100 µM (inactive) | 43.5 µM (inactive)
6 | CC1(C)C2=CCCC(=O)[C@@]2(C)CC[C@@H]1O | > 100 µM (inactive) | > 100 µM (inactive) | > 100 µM (inactive) | > 100 µM (inactive) | – | > 100 µM (inactive) | > 100 µM (inactive) | > 100 µM (inactive) | > 100 µM (inactive) | > 100 µM (inactive) | > 100 µM (inactive) | > 100 µM (inactive) | > 100 µM (inactive) | > 100 µM (inactive) | > 100 µM (inactive) | > 100 µM (inactive) | 5.97 µM (inactive) | > 100 µM (inactive) | > 100 µM (inactive) | > 100 µM (inactive)
7 | O=c1oc(C(C(F)(F)F)C(F)(F)F)nc2ccccc12 | > 100 µM (inactive) | > 100 µM (inactive) | > 100 µM (inactive) | > 100 µM (inactive) | > 100 | > 100 µM (inactive) | > 100 µM (inactive) | > 100 µM (inactive) | > 100 µM (inactive) | > 100 µM (inactive) | > 100 µM (inactive) | > 100 µM (inactive) | > 100 µM (inactive) | > 100 µM (inactive) | – | > 100 µM (inactive) | > 100 µM (inactive) | – | > 100 µM (inactive) | > 100 µM (inactive)
8 | O=C1COc2cccnc2N1CCCCO | > 100 µM (inactive) | > 100 µM (inactive) | > 100 µM (inactive) | > 100 µM (inactive) | > 100 | > 100 µM (inactive) | > 100 µM (inactive) | > 100 µM (inactive) | > 100 µM (inactive) | – | > 100 µM (inactive) | > 100 µM (inactive) | > 100 µM (inactive) | – | – | > 100 µM (inactive) | > 100 µM (inactive) | > 100 µM (inactive) | > 100 µM (inactive) | > 100 µM (inactive)
9 | COc1ccccc1N1C(=O)CSC1c1cccc(Oc2ccccc2)c1 (stereo not given) | 17.7 µM (inactive) | 21.8 µM (inactive) | 23.8 µM (inactive) | 17.6 µM (inactive) | 17.2 | 20.1 µM (inactive) | 12.7 µM (inactive) | – | 17.1 µM (inactive) | 17.7 µM (inactive) | 16.2 µM (inactive) | 21.1 µM (inactive) | 18.5 µM (inactive) | 17.9 µM (inactive) | 17.5 µM (inactive) | 17.8 µM (inactive) | 15.8 µM (inactive) | 17.2 µM (inactive) | 23.8 µM (inactive) | 24.8 µM (inactive)
10 | O=C(O)CCCc1nc2c(n1Cc1ccccc1)C(=O)c1ccccc1C2=O | > 100 µM (inactive) | 30.8 µM (inactive) | > 100 µM (inactive) | 28.6 µM (inactive) | 52.4 | – | 48.9 µM (inactive) | 59.3 µM (inactive) | 40.4 µM (inactive) | 3.72 µM (inactive) | 29.4 µM (inactive) | 21.5 µM (inactive) | 76.9 µM (inactive) | 36.6 µM (inactive) | 26.1 µM (inactive) | > 100 µM (inactive) | 14.9 µM (inactive) | 36.9 µM (inactive) | > 100 µM (inactive) | 44.7 µM (inactive)
11 | N#CCCN(CCC#N)c1ccc(/C=C(\NC(=O)c2cc([N+](=O)[O-])ccc2Cl)C(=O)Nc2ccccc2)cc1 | – | > 100 µM (inactive) | 62.1 µM (inactive) | 78.7 µM (inactive) | 4.55 | 45.2 µM (inactive) | > 100 µM (inactive) | > 100 µM (inactive) | 21.4 µM (inactive) | – | 44.2 µM (inactive) | > 100 µM (inactive) | 99.8 µM (inactive) | 83.9 µM (inactive) | 30.8 µM (inactive) | > 100 µM (inactive) | > 100 µM (inactive) | > 100 µM (inactive) | > 100 µM (inactive) | 36.3 µM (inactive)
12 | O=C1CCCC(=O)N1n1c(Cc2ccccc2)n[nH]c1=O | > 100 µM (inactive) | > 100 µM (inactive) | > 100 µM (inactive) | > 100 µM (inactive) | > 100 | > 100 µM (inactive) | > 100 µM (inactive) | > 100 µM (inactive) | > 100 µM (inactive) | > 100 µM (inactive) | > 100 µM (inactive) | > 100 µM (inactive) | > 100 µM (inactive) | > 100 µM (inactive) | > 100 µM (inactive) | > 100 µM (inactive) | > 100 µM (inactive) | > 100 µM (inactive) | – | > 100 µM (inactive)
13 | Cc1ccc(-c2cc(=O)c3cc(C)c(C)c(C(=O)O)c3o2)cc1C | > 100 µM (inactive) | > 100 µM (inactive) | 28.4 µM (inactive) | > 100 µM (inactive) | > 100 | > 100 µM (inactive) | > 100 µM (inactive) | > 100 µM (inactive) | > 100 µM (inactive) | > 100 µM (inactive) | > 100 µM (inactive) | > 100 µM (inactive) | > 100 µM (inactive) | > 100 µM (inactive) | – | > 100 µM (inactive) | > 100 µM (inactive) | > 100 µM (inactive) | > 100 µM (inactive) | > 100 µM (inactive)
14 | Cn1c(-c2ccco2)ccc1-c1ccc(C=O)o1 | > 100 µM (inactive) | > 100 µM (inactive) | 13 µM (inactive) | 24.2 µM (inactive) | 72.4 | > 100 µM (inactive) | 31 µM (inactive) | 38.2 µM (inactive) | 34.8 µM (inactive) | 35 µM (inactive) | > 100 µM (inactive) | 45.6 µM (inactive) | > 100 µM (inactive) | 37.3 µM (inactive) | – | 48.6 µM (inactive) | > 100 µM (inactive) | 77.6 µM (inactive) | > 100 µM (inactive) | 31 µM (inactive)
15 | CC(=O)OC12c3ccccc3-c3ccccc3C1C(C(=O)O)C2(Cl)C(=O)O (stereo not given) | > 10 µM (inactive) | – | > 10 µM (inactive) | – | > 10 | > 10 µM (inactive) | > 10 µM (inactive) | > 10 µM (inactive) | > 10 µM (inactive) | > 10 µM (inactive) | > 10 µM (inactive) | > 10 µM (inactive) | > 10 µM (inactive) | > 10 µM (inactive) | > 10 µM (inactive) | > 10 µM (inactive) | > 10 µM (inactive) | > 10 µM (inactive) | > 10 µM (inactive) | > 10 µM (inactive)
